One data set concerns trypsin. In words: Peptide trypsin digest (cleavage rate constants). Format: in vitro ADME. The settings on record: 10% EtOH in 50 mM Tris pH 8.3, room temperature; for Cleavage rate constant, Unmetathesized: unmetathesized peptide; for Cleavage rate constant, Metathesized and hydrogenated: metathesized and hydrogenated peptide. As to the method:
Peptide trypsin digest: A typical peptide trypsin digest experiment was performed by adding 5 μL of a 20× trypsin solution in 1 mM HCl to a 100 μL solution of peptide at 9 μM in 10% EtOH in 50 mM Tris at pH 8.3. The reaction was allowed to proceed at room temperature for 30 min at which time it was quenched by adding 100 μL of a 1% trifluoroacetic acid solution and frozen on dry ice. The sample was then thawed and injected into a reverse phase HPLC on a C18 column for quantitation at 280 nm. The cleavage rate constants were obtained by performing the digest experiments at multiple trypsin concentrations and fitting to a kinetic model that is first order in both enzyme and substrate concentration.

Data set [1] in a line: Circular dichroism measure of helical content. Format: physicochemical. As to the method:
Circular dichroism: Circular dichroism spectra were collected on a Jasco J-710 spectropolarimeter at 4° C. A typical sample was prepared by lyophilizing a measured volume of peptide solution and then resuspending it in 3 ml of 0.1% TFA in water to obtain a solution with a 280 nm absorbance of approximately 0.06 absorbance units. The sample was placed in a 1 cm CD cuvette and the ultraviolet absorbance was measured. The circular dichroism spectrum was measured and a baseline CD spectrum of 0.1% TFA in water was subtracted from it. The baseline subtracted CD spectrum was then normalized using the 280 nm absorbance.
On the technique in general: CD spectra are sensitive to the conformation of chiral molecules.

Data set [2] in a line: Sedimentation equilibrium (analytical centrifugation). Format: physicochemical. The settings on record: conditions of the circular dichroism experiments, 4° C. The method, then: Analytical centrifugation: Sedimentation Equilibrium Experiments were performed on a Beckman Optima XL-A analytical centrifuge. The samples were centrifuged at 35,000 RPM at 4° C. and monitored at 280 nm. The data was fit to a single species model. The sedimentation equilibrium experiments were run on the identical samples from which circular dichroism spectra were recorded.

The mark [3] stands for this setting: crosslinked versus corresponding uncrosslinked modified peptide.

Bridge positions count the residues as written; N and C are the ends. Square brackets hold non-standard residues; d marks the D form. R‑13 = (R)-2-(2'-pentenyl)alanine; R‑14 = (R)-2-(2′-hexenyl)alanine; S‑14 = (S)-2-(2′-hexenyl)alanine; S‑16 = (S)-2-(2′-octenyl)alanine

As for “Ac-EWAETAAAKFLAAHA-NH2 [Control, reference compound]”, the “Cleavage rate constant, Unmetathesized” value stood at 2.39 M⁻¹ s⁻¹ with trypsin and 2.38 M⁻¹ s⁻¹ in the data set on trypsin (listed as unmodified control peptide). Further, the “helical content (α-helicity)” value in data set [1] (circular dichroism, water containing 0.1% trifluoroacetic acid, 4° C.) is about 40%.

“Ri,i+7S(9): Ac-EWAEyAAAKFLzAHA-NH2 (SEQ ID NO: 2), (y,z) = (R-13,S-14), 9 carbon crosslink (Ac-EWAE[R‑13]AAAKFL[S‑14]AHA-NH2; staple 5-12)”: the “Cleavage rate constant, Metathesized and hydrogenated” value in the data set on trypsin was found to be 0.37 M⁻¹ s⁻¹. Besides, in data set [1] (setting [3]), the “decrease of helical content following RCM” value is 21%.

Regarding “Ri,i+7S(10): Ac-EWAEyAAAKFLzAHA-NH2 (SEQ ID NO: 2), (y,z) = (R-14,S-14), 10 carbon crosslink (Ac-EWAE[R‑14]AAAKFL[S‑14]AHA-NH2; staple 5-12)”, the “Cleavage rate constant, Metathesized and hydrogenated” value with trypsin turned out to be 0.34 M⁻¹ s⁻¹. In addition, the “decrease of helical content following RCM” value in data set [1] (setting [3]) is 12%.

For “Ri,i+7S(11): Ac-EWAEyAAAKFLzAHA-NH2 (SEQ ID NO: 2), (y,z) = (R-13,S-16), 11 carbon crosslink (Ac-EWAE[R‑13]AAAKFL[S‑16]AHA-NH2; staple 5-12)”, in the data set with trypsin, the “Cleavage rate constant, Metathesized and hydrogenated” value is 0.058 M⁻¹ s⁻¹; the “Cleavage rate constant, Unmetathesized” value came out at 0.50 M⁻¹ s⁻¹. Moreover, the “oligomeric state by sedimentation equilibrium” value in data set [2] is recorded as “monomeric”. In data set [1] (circular dichroism), the “helix stabilization (result in words)” value was “best helix stabilizer”. Also, the “increase of helical content following RCM” value in data set [1] (crosslinked versus corresponding uncrosslinked modified peptide, for Ri,i+7S(12) cis and trans double bond isomers) worked out at 26%. Further, the “increase of helical structure compared to unmodified control peptide” value in data set [1] (versus unmodified control peptide) was 44%.

Consider “Ri,i+7S(12): Ac-EWAEyAAAKFLzAHA-NH2 (SEQ ID NO: 2), (y,z) = (R-14,S-16), 12 carbon crosslink; cis and trans isomers (Ac-EWAE[R‑14]AAAKFL[S‑16]AHA-NH2; staple 5-12; also: cis and trans olefin isomers)”, for which the “Cleavage rate constant, Metathesized and hydrogenated” value in the data set with trypsin was 0.12 M⁻¹ s⁻¹.

For the origin of these results see patent US10487110B2, “Stabilized compounds having secondary structure motifs” (President and Fellows of Harvard College, priority 1999, dated 2019).
